Reference: patent publication US11337988B2, “Use of ouabain antagonists to inhibit viral infection” (priority 2018, dated 2022)

Key:
[1] = tested on: RSV; assay: Preliminary studies of RSV infection with an inhibitor of clathrin-mediated endocytosis; assay type: cell-based, human respiratory syncytial virus (RSV); conditions: non-toxic concentrations
[2] = adducin- and ouabain-induced forms of hypertension; normal systolic blood pressure of healthy individuals not lowered; cited from earlier work
[3] = biological target: T1, ATP1A1 (Homo sapiens, UniProt P05023); assay: RSV-induced ATP1A1 clustering in A549 cells by confocal immunofluorescence; assay type: cell-based; conditions: A549 treated overnight, RSV MOI=5 PFU/cell, 5 hours
T1 construct: ATP1A1 being expressed ubiquitously and being the predominant isoform expressed in A549 cells; endogenous in cells; host or cells: A549 cells (ATCC CCL-185)
Text: Whether PST2238 treatment had any effect on the clustering of ATP1A1 and RSV proteins was also investigated.
Immunofluorescence microscopy.

[4] = including 5 mg twice a day for a week and 0.5 mg per day for three months; cited from earlier work
[5] = tested on: EGFR Tyr845; assay: EGFR phosphorylation array (pTyr845) in A549 cells; conditions: without RSV infection
Description: A549 cells were treated as indicated (either siRNA knock down for 48 h or pre-treatment with the chemical compounds ouabain [25 n1\4], PST2238 [40 μM] or Src Inhibitor-I (SrcI-I) [6.25 μM] and PP2 [12.5 μM] for 5 h pre-inoculation). Cells were serum starved overnight, before they were inoculated with wt RSV (MOI=5 PFU/cell) and incubated at 37° C. Cells were lysed 5 h p.i. and subjected to a phospho-specific EGFR array (RayBiotech, Inc.). (FIG. 8A) Representative array spots of pTyr845 EGFR and its corresponding pan EGFR for each treatment are shown. […] (FIG. 8D) As control, PST2238 or Ouabain pretreated A549 cells were stimulated with EGF (100 ng/ml) for 45 min and the pTyr845 EGFR signal was quantified. The statistical significance of the differences were determined by one-way analysis of variance with Dunnett multiple-comparison test and the significance p-values are indicated for each comparison. […]
Quantification of EGFR phosphorylation. […] The protein concentration of the lysate was quantified by bicinchoninic acid (BCA) assay (Thermo Fisher Scientific) and lysate containing 150 μg total protein was used for each array. […] The light emission of the array spots was detected by exposure to X-ray films. The films were scanned and the intensity values of each spot were quantified by ImageQuant TL (Array Version 8.1, GE Healthcare). […]

[6] = tested on: RSV-GFP; assay: RSV-GFP infection of A549 cells, GFP intensity of total well by ELISA reader; conditions: discussion statement
Description: Quantification of RSV infection by viral expressed GFP. For the evaluation of RSV infection, RSV-GFP, a recombinantly derived virus that expresses enhanced green fluorescent protein (eGFP) from an additional gene inserted between the P and M genes, was used. SiRNA transfected or pre-treated A549 cells, seeded in a 12-well plate, were inoculated with an MOI of 1.0 PFU/cell. Inoculum was adsorbed for 2 h by incubating on a rocking platform at 37° C., after which the inoculum was washed off and replaced with fresh media. The infected cells were incubated for 17 h at 37° C. and 5% CO2 and the infectivity was evaluated by quantifying GFP either by ELISA reader or flow cytometry. For the ELISA reader quantification, the GFP intensity of the infected monolayer was quantified by an area scan (average GFP intensity of 29 individual measurements per well) on a Synergy 2 ELISA reader (BioTek). […] For the flow cytometry based GFP quantification, the cells were detached with 1 mM EDTA, stained with LIVE/DEAD fixable dead cell staining kit (Life Technologies), and fixed with 4% paraformaldehyde (PFA, Electron Microscopy Science, PA). The GFP intensities of single, live cells were analyzed on a Canto II flow cytometer (BD Biosciences, Franklin Lakes, N.J.).

SMILES: CN(C)CCCN1c2ccccc2Sc2ccc(Cl)cc21 [chlorpromazine]
- effects on RSV infection [1]: did not detect effects

SMILES: C[C@]12CC[C@H](O)C[C@H]1CC[C@@H]1[C@@H]2CC[C@]2(C)[C@@](O)(c3ccoc3)CC[C@]12O [PST2238, (3β,5β,14β)-21,23-Epoxy-24-norchola-20,22-diene-3,14,17-triol]
- effect on blood pressure [2]: lowers the blood pressure
- effect on the clustering of ATP1A1 [3]: no apparent effect
- toxicity in human and animal models [4]: non-toxic

SMILES: C[C@@H]1O[C@@H](O[C@H]2C[C@@H](O)[C@]3(CO)[C@@H]4[C@@H](CC[C@]3(O)C2)[C@@]2(O)CCC(C3=CC(=O)OC3)[C@@]2(C)C[C@@H]4O)[C@H](O)[C@H](O)[C@H]1O (stereo partly drawn) [ouabain, (1β,3β,5β,11α)-3-[(6-Deoxy-α-L-mannopyranosyl)oxy]-1,5,11,14,19-pentahydroxycard-20(22)-enolide]
- detection of phosphorylation of EGFR Tyr845 following treatment with compound alone [5]: not following treatment with ouabain
- concentrations at which inhibition of RSV infection was achieved [6]: sub-nanomolar
